Measured values: US5440016A, “Peptides of the formula (KFmoc) ZZZ and their uses” (priority 1993, dated 1995)
≈ marks a conversion by molar mass, not a printed value. Like-named read-outs stand apart in the source and are kept apart here. Square brackets hold non-standard residues; d marks the D form. Peptide text beside a SMILES is read from it. * marks the point of attachment. Fmoc = O=C(OCC1c2ccccc2-c2ccccc21)*

Assays:
[1] = test system: Escherichia coli ATCC 25922
Procedure: (§1) Escherichia coli ATCC 25922 and P. aeruginosa ATCC 27853 were used as Gram-negative (-) and Staphylococcus aureus ATCC 29213 as Gram-positive (+) bacteria. Bacteria were grown overnight at 37° C. in Mueller-Hinton (MH) broth. This culture was reinoculated and incubated at 37° C. to reach the exponential phase of bacteria growth, i.e., a final bacterial suspension containing 10^5 to 5×10^5 colony-forming units (CFU)/ml. The concentration of cells was established by plating 100 μl of different dilutions of the culture solution (e.g., 10^-2, 10^-3 and 10^-4) onto solid agar plates.
(§2) Following an overnight incubation at 37° C., the CFU thus formed were counted on each agar plate. In 96-well tissue culture plates, as control blanks, eight wells per plate contained only medium, while as a positive growth control, eight other wells contained medium plus cells.
(§3) The plates were incubated overnight at 37° C., and the optical density (OD) determined at 620 nm after different times of incubation.

[2] = test system: Human red blood cells (RBCs); assay: Hemolytic activity; type: cell-based; details: Tables 18-21
[3] = test system: Staphylococcus aureus ATCC 29213
Procedure: as §1, §2, §3

[4] = test system: Streptococcus sanguis ATCC 10556
[5] = test system: Candida albicans ATCC 10231
[6] = Tables 2-5, concentration necessary to inhibit 50% growth
[7] = Tables 7-9, lower parts (unnatural amino acids)
[8] = Tables 11-13, lower parts (unnatural amino acids)
[9] = Tables 3-5, lower parts (unnatural amino acids)
[10] = Tables 15-17, lower parts (unnatural amino acids)

C[C@@H](NC(=O)[C@H](CCCCN)NC(=O)[C@H](Cc1c[nH]c2ccccc12)NC(=O)[C@H](CCCCN)NC(=O)OCC1c2ccccc2-c2ccccc21)C(N)=O [(KFmoc)WKa-NH2] (Fmoc-KWK[dA]-NH2)
IC50 against E. coli [1, 6]: 60 µg/mL (≈ 79.7 µM)
HD50 (concentration necessary to lyse 50% of the cells) [2]: 437 µg/mL
IC50 against S. aureus ([3]; Tables 6-9): 7 µg/mL (≈ 9.3 µM)
IC50 against S. sanguis ([4]; Tables 10-13): 8 µg/mL (≈ 10.6 µM)
IC50 against C. albicans ([5]; Tables 14-17): 200 µg/mL (≈ 266 µM)

NCCCC[C@H](NC(=O)OCC1c2ccccc2-c2ccccc21)C(=O)N[C@@H](Cc1c[nH]c2ccccc12)C(=O)N[C@@H](CCCCN)C(=O)N[C@H](CS)C(N)=O [(KFmoc)WKc-NH2] (Fmoc-KWK[dC]-NH2)
IC50 against E. coli [1, 6]: 23 µg/mL (≈ 29.3 µM)
HD50 (concentration necessary to lyse 50% of the cells) [2]: 25 µg/mL
IC50 against S. aureus ([3]; Tables 6-9): 4 µg/mL (≈ 5.1 µM)
IC50 against S. sanguis ([4]; Tables 10-13): 4 µg/mL (≈ 5.1 µM)
IC50 against C. albicans ([5]; Tables 14-17): 243 µg/mL (≈ 310 µM)

NCCCC[C@H](NC(=O)OCC1c2ccccc2-c2ccccc21)C(=O)N[C@@H](Cc1c[nH]c2ccccc12)C(=O)N[C@@H](CCCCN)C(=O)N[C@H](Cc1ccccc1)C(N)=O [(KFmoc)WKf-NH2] (Fmoc-KWK[dF]-NH2)
IC50 against E. coli [1, 6]: 38 µg/mL (≈ 45.8 µM)
HD50 (concentration necessary to lyse 50% of the cells) [2]: 126 µg/mL
IC50 against S. aureus ([3]; Tables 6-9): 10 µg/mL (≈ 12.1 µM)
IC50 against S. sanguis ([4]; Tables 10-13): 6 µg/mL (≈ 7.24 µM)
IC50 against C. albicans ([5]; Tables 14-17): 133 µg/mL (≈ 160 µM)

NCCCC[C@H](NC(=O)OCC1c2ccccc2-c2ccccc21)C(=O)N[C@@H](Cc1c[nH]c2ccccc12)C(=O)N[C@@H](CCCCN)C(=O)N[C@H](Cc1c[nH]cn1)C(N)=O [(KFmoc)WKh-NH2] (Fmoc-KWK[dH]-NH2)
IC50 against E. coli [1, 6]: 52 µg/mL (≈ 63.5 µM)
HD50 (concentration necessary to lyse 50% of the cells) [2]: 313 µg/mL
IC50 against S. aureus ([3]; Tables 6-9): 6 µg/mL (≈ 7.33 µM)
IC50 against S. sanguis ([4]; Tables 10-13): 6 µg/mL (≈ 7.33 µM)
IC50 against C. albicans ([5]; Tables 14-17): 156 µg/mL (≈ 190 µM)

CC[C@@H](C)[C@@H](NC(=O)[C@H](CCCCN)NC(=O)[C@H](Cc1c[nH]c2ccccc12)NC(=O)[C@H](CCCCN)NC(=O)OCC1c2ccccc2-c2ccccc21)C(N)=O [(KFmoc)WKi-NH2] (Fmoc-KWK[dI]-NH2)
IC50 against E. coli [1, 6]: 23 µg/mL (≈ 28.9 µM)
HD50 (concentration necessary to lyse 50% of the cells) [2]: 296 µg/mL
IC50 against S. aureus ([3]; Tables 6-9): 9 µg/mL (≈ 11.3 µM)
IC50 against S. sanguis ([4]; Tables 10-13): 8 µg/mL (≈ 10.1 µM)
IC50 against C. albicans ([5]; Tables 14-17): 209 µg/mL (≈ 263 µM)

NCCCC[C@H](NC(=O)OCC1c2ccccc2-c2ccccc21)C(=O)N[C@@H](Cc1c[nH]c2ccccc12)C(=O)N[C@@H](CCCCN)C(=O)N[C@H](CCCCN)C(N)=O [(KFmoc)WKk-NH2] (Fmoc-KWK[dK]-NH2)
IC50 against S. aureus ([3]; Tables 6-9): 8 µg/mL (≈ 9.88 µM)
IC50 against S. sanguis ([4]; Tables 10-13): 7 µg/mL (≈ 8.64 µM)
IC50 against C. albicans ([5]; Tables 14-17): 126 µg/mL (≈ 156 µM)

CC(C)C[C@@H](NC(=O)[C@H](CCCCN)NC(=O)[C@H](Cc1c[nH]c2ccccc12)NC(=O)[C@H](CCCCN)NC(=O)OCC1c2ccccc2-c2ccccc21)C(N)=O [(KFmoc)WKl-NH2] (Fmoc-KWK[dL]-NH2)
IC50 against E. coli [1, 6]: 20 µg/mL (≈ 25.2 µM)
HD50 (concentration necessary to lyse 50% of the cells) [2]: 166 µg/mL
IC50 against S. aureus ([3]; Tables 6-9): 5 µg/mL (≈ 6.29 µM)
IC50 against S. sanguis ([4]; Tables 10-13): 5 µg/mL (≈ 6.29 µM)
IC50 against C. albicans ([5]; Tables 14-17): 121 µg/mL (≈ 152 µM)

CSCC[C@@H](NC(=O)[C@H](CCCCN)NC(=O)[C@H](Cc1c[nH]c2ccccc12)NC(=O)[C@H](CCCCN)NC(=O)OCC1c2ccccc2-c2ccccc21)C(N)=O [(KFmoc)WKm-NH2] (Fmoc-KWK[dM]-NH2)
IC50 against E. coli [1, 6]: 41 µg/mL (≈ 50.4 µM)
HD50 (concentration necessary to lyse 50% of the cells) [2]: 178 µg/mL
IC50 against S. aureus ([3]; Tables 6-9): 7 µg/mL (≈ 8.61 µM)
IC50 against S. sanguis ([4]; Tables 10-13): 7 µg/mL (≈ 8.61 µM)
IC50 against C. albicans ([5]; Tables 14-17): 163 µg/mL (≈ 200 µM)

NCCCC[C@H](NC(=O)OCC1c2ccccc2-c2ccccc21)C(=O)N[C@@H](Cc1c[nH]c2ccccc12)C(=O)N[C@@H](CCCCN)C(=O)N[C@H](CC(N)=O)C(N)=O [(KFmoc)WKn-NH2] (Fmoc-KWK[dN]-NH2)
IC50 against E. coli [1, 6]: 47 µg/mL (≈ 59 µM)
IC50 against S. aureus ([3]; Tables 6-9): 10 µg/mL (≈ 12.6 µM)
IC50 against S. sanguis ([4]; Tables 10-13): 8 µg/mL (≈ 10.1 µM)
IC50 against C. albicans ([5]; Tables 14-17): 233 µg/mL (≈ 293 µM)

NCCCC[C@H](NC(=O)OCC1c2ccccc2-c2ccccc21)C(=O)N[C@@H](Cc1c[nH]c2ccccc12)C(=O)N[C@@H](CCCCN)C(=O)N1CCC[C@@H]1C(N)=O [(KFmoc)WKp-NH2] (Fmoc-KWK[dP]-NH2)
IC50 against E. coli [1, 6]: 39 µg/mL (≈ 50.1 µM)
HD50 (concentration necessary to lyse 50% of the cells) [2]: 437 µg/mL
IC50 against S. aureus ([3]; Tables 6-9): 8 µg/mL (≈ 10.3 µM)
IC50 against S. sanguis ([4]; Tables 10-13): 5 µg/mL (≈ 6.42 µM)
IC50 against C. albicans ([5]; Tables 14-17): 251 µg/mL (≈ 322 µM)

NCCCC[C@H](NC(=O)OCC1c2ccccc2-c2ccccc21)C(=O)N[C@@H](Cc1c[nH]c2ccccc12)C(=O)N[C@@H](CCCCN)C(=O)N[C@H](CCC(N)=O)C(N)=O [(KFmoc)WKq-NH2] (Fmoc-KWK[dQ]-NH2)
IC50 against E. coli [1, 6]: 57 µg/mL (≈ 70.4 µM)
HD50 (concentration necessary to lyse 50% of the cells) [2]: 483 µg/mL
IC50 against S. aureus ([3]; Tables 6-9): 7 µg/mL (≈ 8.64 µM)
IC50 against S. sanguis ([4]; Tables 10-13): 7 µg/mL (≈ 8.64 µM)
IC50 against C. albicans ([5]; Tables 14-17): 291 µg/mL (≈ 359 µM)

N=C(N)NCCC[C@@H](NC(=O)[C@H](CCCCN)NC(=O)[C@H](Cc1c[nH]c2ccccc12)NC(=O)[C@H](CCCCN)NC(=O)OCC1c2ccccc2-c2ccccc21)C(N)=O [(KFmoc)WKr-NH2] (Fmoc-KWK[dR]-NH2)
IC50 against E. coli [1, 6]: 66 µg/mL (≈ 78.8 µM)
HD50 (concentration necessary to lyse 50% of the cells) [2]: 324 µg/mL
IC50 against S. aureus ([3]; Tables 6-9): 7 µg/mL (≈ 8.35 µM)
IC50 against S. sanguis ([4]; Tables 10-13): 5 µg/mL (≈ 5.97 µM)
IC50 against C. albicans ([5]; Tables 14-17): 98 µg/mL (≈ 117 µM)

NCCCC[C@H](NC(=O)OCC1c2ccccc2-c2ccccc21)C(=O)N[C@@H](Cc1c[nH]c2ccccc12)C(=O)N[C@@H](CCCCN)C(=O)N[C@H](CO)C(N)=O [(KFmoc)WKs-NH2] (Fmoc-KWK[dS]-NH2)
IC50 against E. coli [1, 6]: 57 µg/mL (≈ 74.1 µM)
HD50 (concentration necessary to lyse 50% of the cells) [2]: 296 µg/mL
IC50 against S. aureus ([3]; Tables 6-9): 6 µg/mL (≈ 7.8 µM)
IC50 against S. sanguis ([4]; Tables 10-13): 6 µg/mL (≈ 7.8 µM)
IC50 against C. albicans ([5]; Tables 14-17): 214 µg/mL (≈ 278 µM)

CC[C@@H](C)[C@@H](NC(=O)[C@@H](CS)NC(=O)[C@H](CCCCN)NC(=O)OCC1c2ccccc2-c2ccccc21)C(=O)N[C@H](Cc1ccccc1)C(N)=O [(KFmoc)cif-NH2] (Fmoc-K[dC][dI][dF]-NH2)
IC50 against S. aureus ([3]; Tables 6-9): 21 µg/mL (≈ 28.7 µM)
IC50 against C. albicans ([5]; Tables 14-17): 218 µg/mL (≈ 298 µM)

(KFmoc)WK(Cys[ACM])-NH2
IC50 against E. coli [1, 6]: 49 µg/mL
IC50 against S. aureus ([3]; Tables 6-9): 11 µg/mL
IC50 against S. sanguis ([4]; Tables 10-13): 11 µg/mL
IC50 against C. albicans ([5]; Tables 14-17): 303 µg/mL

(KFmoc)WK(Hyp)-NH2
IC50 against E. coli [1, 6]: 62 µg/mL
IC50 against S. aureus ([3]; Tables 6-9): 10 µg/mL
IC50 against S. sanguis ([4]; Tables 10-13): 10 µg/mL
IC50 against C. albicans ([5]; Tables 14-17): 370 µg/mL

(KFmoc)WK(KCBZ)-NH2
IC50 against S. aureus ([3]; Tables 6-9): 9 µg/mL
IC50 against S. sanguis ([4]; Tables 10-13): 9 µg/mL
IC50 against C. albicans ([5]; Tables 14-17): 161 µg/mL

(KFmoc)WY(Hyp)-NH2
HD50 (concentration necessary to lyse 50% of the cells) [2]: 81 µg/mL
IC50 against S. aureus [3, 7]: 9 μg/m
IC50 against S. sanguis [4, 8]: 10 μg/m

(KFmoc)WY(KCBZ)-NH2
IC50 against E. coli [1, 9]: 59 μg/m
IC50 against S. aureus [3, 7]: 9 μg/m
IC50 against S. sanguis [4, 8]: 9 μg/m
IC50 against C. albicans [5, 10]: 309 μg/m

(KFmoc)ci(Thiopro)-NH2
IC50 against E. coli [1, 9]: 25 μg/m
IC50 against S. aureus [3, 7]: 9 μg/m
IC50 against S. sanguis [4, 8]: 6 μg/m
IC50 against C. albicans [5, 10]: 197 μg/m

(KFmoc)ciG-NH2
HD50 (concentration necessary to lyse 50% of the cells) [2]: 35 µg/mL
IC50 against S. sanguis ([4]; Tables 10-13): 23 µg/mL
IC50 against C. albicans ([5]; Tables 14-17): 372 µg/mL
